Our source for the IC50 values is patent US20240409585A1, “MACROCYCLIC IMMUNOMODULATORS” (priority 2021, published 2024).

Molecules are shown by their SMILES. Numbered stars: 1 amine (or outer) side, 2 acyl side, 3 side chain; on linkers, the order of the positions; unused ones are H or OH. Bridge positions count the residues as written; N and C are the ends. Square brackets hold non-standard residues; d marks the D form. Peptide text beside a SMILES is read from it. * marks the point of attachment. ξ: configuration not given here. X33 = O=C([C@H](Cc1ccc(-c2cccc(Cl)c2)cc1)N[*:1])[*:2]; Phe(4-COOH) = N[C@@H](Cc1ccc(C(=O)O)cc1)C(=O)O; Bip = N[C@@H](Cc1ccc(-c2ccccc2)cc1)C(=O)O; Phe(3-CN) = N#Cc1cccc(C[C@H](N)C(=O)O)c1; Phe(3-Me) = Cc1cccc(C[C@H](N)C(=O)O)c1; Phe(2-F) = N[C@@H](Cc1ccccc1F)C(=O)O; Val(3-OH) = CC(C)(O)[C@H](N)C(=O)O; 4Pal = N[C@@H](Cc1ccncc1)C(=O)O; Cha = N[C@@H](CC1CCCCC1)C(=O)O; Cit = NC(=O)NCCC[C@H](N)C(=O)O; Ile(3ξ) = CCC(C)[C@H](N)C(=O)O; Thr(3ξ) = CC(O)[C@H](N)C(=O)O; ξCha = NC(CC1CCCCC1)C(=O)O; Carboxymethyl = O=C(O)C*; NMeA = CN[C@@H](C)C(=O)O; Orn = NCCC[C@H](N)C(=O)O; Dab = NCC[C@H](N)C(=O)O; Dap = NC[C@H](N)C(=O)O

The target in one test is T1, PE-labeled human PD-L1-Ig binding to Jurkat cell line over-expressing human PD-1 (Jurkat-PD-1) (Homo sapiens, UniProt Q15116).
T1 construct: expressed in transfected cells; host or cells: Jurkat
T1 sequence (Q15116 25-288): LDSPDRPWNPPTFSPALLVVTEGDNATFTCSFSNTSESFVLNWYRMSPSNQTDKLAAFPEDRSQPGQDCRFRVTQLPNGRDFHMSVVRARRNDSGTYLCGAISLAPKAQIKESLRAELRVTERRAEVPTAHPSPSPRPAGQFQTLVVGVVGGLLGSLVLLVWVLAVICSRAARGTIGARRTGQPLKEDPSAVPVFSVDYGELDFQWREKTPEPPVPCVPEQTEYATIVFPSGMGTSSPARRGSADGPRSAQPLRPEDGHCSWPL
In words: Jurkat-PD-1 Cell Binding High-Content Screening Assay (CBA): Method 1. Conditions: Jurkat HPDL1 PD1 IC50 (uM) (Method 1), Jurkat-hPD-1 cells, PE-labeled PD-L1-Ig 20 nM final.
As to `C=C1N[C@@H](Cc2ccccc2)C(=O)N(C)[C@@H](C)C(=O)N[C@H](CC(C)C)C(=O)N[C@@H](CC(N)=O)C(=O)N[C@@H](CC(C)C)C(=O)N[C@@H](Cc2ccccc2)C(=O)N[C@@H](CO)C(=O)N[C@H](C(=O)N[C@@H](C)C(N)=O)CSCC(=O)N[C@@H](Cc2ccc(OCC(=O)O)cc2)C(=O)N[C@@H](Cc2ccc(C(=O)O)cc2)C(=O)N[C@@H](CC(=O)O)C(=O)N[C@@H](Cc2cccc(C)c2)C(=O)N[C@@H](CC(C)C)C(=O)N[C@H]1Cc1ccc(-c2ccccc2)cc1` [Compound 1585], the IC50 was found to be 0.73 µM.

The same test, now with this note: Jurkat-hPD-1 cells, PE-labeled PD-L1-Ig 20 nM final; read-out: Jurkat HPDL1 PD1 IC50 (uM) (Method 1).
Take `CC(C)C[C@@H]1NC(=O)[C@H](CCN)NC(=O)[C@@H](CC(C)C)NC(=O)[C@H](C)N(C)C(=O)[C@H](C(C)C)NC(=O)[C@H](Cc2ccc(-c3ccccc3)cc2)NC(=O)[C@H](C(C)C)NC(=O)[C@H](Cc2c[nH]c3ccccc23)NC(=O)[C@H](CC(=O)O)NC(=O)[C@H](Cc2cccc(C#N)c2)NC(=O)[C@H](CN)NC(=O)CSC[C@@H](C(=O)N[C@@H](C)C(N)=O)NC(=O)[C@H]([C@@H](C)O)NC(=O)[C@H](C(C)C)NC1=O` [Compound 1436] ({CH2CO}-[Dap][Phe(3-CN)]DWV[Bip]V[NMeA][dL][Dab]LVTCA-NH2; thioether N-14): the IC50 came out at 0.06 µM. In the case of `Cc1cccc(C[C@@H]2NC(=O)[C@H](CC(=O)O)NC(=O)[C@H](Cc3ccc(OCC(=O)O)cc3)NC(=O)[C@H]([C@@H](C)O)NC(=O)CSC[C@@H](C(N)=O)NC(=O)[C@H](CCCN)NC(=O)[C@H](C(C)C)NC(=O)[C@H](CC3CCCCC3)NC(=O)[C@H](CC(N)=O)NC(=O)[C@@H](CC(C)C)NC(=O)[C@H](C)N(C)C(=O)[C@H](Cc3ccc(OCC(=O)O)cc3)NC(=O)[C@H](Cc3ccc(-c4ccccc4)cc3)NC(=O)[C@H](Cc3ccc(OCC(=O)O)cc3)NC2=O)c1` [Compound 1680] ({CH2CO}-TY(Carboxymethyl)D[Phe(3-Me)]Y(Carboxymethyl)[Bip]Y(Carboxymethyl)[NMeA][dL]N[Cha]V[Orn]C-NH2; thioether N-14), the IC50 was 0.17 µM.

On to `CC(C)C[C@@H]1NC(=O)[C@H](CCN)NC(=O)[C@@H](CC(C)C)NC(=O)[C@H](C)N(C)C(=O)[C@H](CCCNC(=N)N)NC(=O)[C@H](Cc2ccc(-c3ccccc3)cc2)NC(=O)[C@H](C(C)C)NC(=O)[C@H](Cc2c[nH]c3ccccc23)NC(=O)[C@H](CC(=O)O)NC(=O)[C@H](Cc2cnc[nH]2)NC(=O)[C@H](Cc2cnc[nH]2)NC(=O)CSC[C@@H](C(=O)N[C@@H](C)C(N)=O)NC(=O)[C@H]([C@@H](C)O)NC(=O)[C@H](C(C)C)NC1=O` [Compound 1142] ({CH2CO}-HHDWV[Bip]R[NMeA][dL][Dab]LVTCA-NH2; thioether N-14), for which the IC50 was found to be 0.24 µM.

On to `CC(C)C[C@@H]1NC(=O)[C@H](CC(N)=O)NC(=O)[C@@H](CC(C)C)NC(=O)[C@H](C)N(C)C(=O)[C@H](C(C)C)NC(=O)[C@H](Cc2ccc(-c3ccccc3)cc2)NC(=O)[C@H](CCN)NC(=O)[C@H](Cc2c[nH]c3ccccc23)NC(=O)[C@H](CC(=O)O)NC(=O)[C@H](Cc2ccc(O)cc2)NC(=O)[C@H](Cc2ccccc2)NC(=O)CSC[C@@H](C(=O)N[C@@H](C)C(N)=O)NC(=O)[C@H](CO)NC(=O)[C@H](C(C)C)NC1=O` [Compound 2025] ({CH2CO}-FYDW[Dab][Bip]V[NMeA][dL]NLVSCA-NH2; thioether N-14), for which the IC50 was determined as 0.26 µM. Still for that read-out and setting: next, `CC(C)C[C@@H]1NC(=O)[C@H](CCN)NC(=O)[C@@H](CC(C)C)NC(=O)[C@H](C)N(C)C(=O)[C@H](C(C)C)NC(=O)[C@H](Cc2ccc(-c3ccccc3)cc2)NC(=O)[C@H](C(C)C)NC(=O)[C@H](Cc2c[nH]c3ccccc23)NC(=O)[C@H](CC(=O)O)NC(=O)[C@H](Cc2ccccc2F)NC(=O)[C@H](CN)NC(=O)CSC[C@@H](C(=O)N[C@@H](C)C(N)=O)NC(=O)[C@H]([C@@H](C)O)NC(=O)[C@H](C(C)C)NC1=O` [Compound 1442] ({CH2CO}-[Dap][Phe(2-F)]DWV[Bip]V[NMeA][dL][Dab]LVTCA-NH2; thioether N-14): 0.03 µM; `CCC(C)[C@@H]1NC(=O)[C@H](Cc2ccc(-c3ccccc3)cc2)NC(=O)[C@H](C(C)C)NC(=O)[C@H](Cc2c[nH]c3ccccc23)NC(=O)[C@H](CC(N)=O)NC(=O)[C@H](Cc2ccc(OCC(=O)O)cc2)NC(=O)[C@H](Cc2ccncc2)NC(=O)CSC[C@@H](C(=O)N[C@@H](C)C(=O)N[C@@H](CCCCN)C(N)=O)NC(=O)[C@H](C(C)O)NC(=O)[C@H](C(C)C)NC(=O)C(CC2CCCCC2)NC(=O)[C@H](CC(N)=O)NC(=O)[C@@H](CC(C)C)NC(=O)[C@H](C)N(C)C1=O` (stereo partly drawn) [Compound 2018] ({CH2CO}-[4Pal]Y(Carboxymethyl)NWV[Bip][Ile(3ξ)][NMeA][dL]N[ξCha]V[Thr(3ξ)]CAK-NH2; thioether N-14): 0.12 µM. Still for that read-out and setting: under `CC(C)C[C@@H]1NC(=O)[C@H](CCN)NC(=O)[C@@H](CC(C)C)NC(=O)[C@H](C)N(C)C(=O)[C@H](Cc2cnc[nH]2)NC(=O)[C@H](Cc2ccc(-c3ccccc3)cc2)NC(=O)[C@H](C(C)C)NC(=O)[C@H](Cc2c[nH]c3ccccc23)NC(=O)[C@H](CC(=O)O)NC(=O)[C@H](Cc2ccc(O)cc2)NC(=O)[C@H](CC(N)=O)NC(=O)CSC[C@@H](C(=O)N[C@@H](C)C(N)=O)NC(=O)[C@H]([C@@H](C)O)NC(=O)[C@H](C(C)C)NC1=O` [Compound 1302] ({CH2CO}-NYDWV[Bip]H[NMeA][dL][Dab]LVTCA-NH2; thioether N-14) stands 0.02 µM; under `CC[C@H](C)[C@@H]1NC(=O)[C@H](Cc2ccc(-c3ccccc3)cc2)NC(=O)[C@H](C(C)(C)O)NC(=O)[C@H](Cc2cccc(C)c2)NC(=O)[C@H](CC(=O)O)NC(=O)[C@H](Cc2ccc(O)cc2)NC(=O)[C@H](CC(N)=O)NC(=O)CSC[C@@H](C(=O)N[C@@H](CCN)C(N)=O)NC(=O)[C@H](CCC(=O)O)NC(=O)[C@H](C(C)(C)O)NC(=O)[C@H](CC2CCCCC2)NC(=O)[C@H](CCN)NC(=O)[C@@H](CC(C)C)NC(=O)[C@H](C)N(C)C1=O` [Compound 1699] ({CH2CO}-NYD[Phe(3-Me)][Val(3-OH)][Bip]I[NMeA][dL][Dab][Cha][Val(3-OH)]EC[Dab]-NH2; thioether N-14), 0.04 µM. Same read-out and setting: next, `Cc1cccc(C[C@@H]2NC(=O)[C@H](CC(=O)O)NC(=O)[C@H](Cc3ccc(OCC(=O)O)cc3)NC(=O)[C@H](Cc3ccncc3)NC(=O)CSC[C@@H](C(=O)N[C@@H](CN)C(N)=O)NC(=O)[C@H](C(C)O)NC(=O)[C@H](C(C)(C)O)NC(=O)[C@H](CC3CCCCC3)NC(=O)[C@H](CCN)NC(=O)[C@@H](CC(C)C)NC(=O)[C@H](C)N(C)C(=O)[C@H](CCCNC(N)=O)NC(=O)[C@H](Cc3ccc(-c4ccccc4)cc3)NC(=O)[C@H](Cc3ccc(OCC(=O)O)cc3)NC2=O)c1` (stereo partly drawn) [Compound 2168] ({CH2CO}-[4Pal]Y(Carboxymethyl)D[Phe(3-Me)]Y(Carboxymethyl)[Bip][Cit][NMeA][dL][Dab][Cha][Val(3-OH)][Thr(3ξ)]C[Dap]-NH2; thioether N-14): 0.03 µM; `CC(C)C[C@@H]1NC(=O)[C@H](Cc2c[nH]c3ccccc23)NC(=O)[C@H](CC(=O)O)NC(=O)[C@H](Cc2ccc(C(=O)O)cc2)NC(=O)[C@H](Cc2ccc(OCC(=O)O)cc2)NC(=O)CSC[C@@H](C(=O)N[C@@H](CCN)C(N)=O)NC(=O)[C@H](CO)NC(=O)[C@H](C(C)C)NC(=O)[C@H](CC2CCCCC2)NC(=O)[C@H](CCN)NC(=O)[C@@H](CC(C)C)NC(=O)[C@H](C)N(C)C(=O)[C@H](C(C)C)NC(=O)[C@H](Cc2ccc(-c3ccccc3)cc2)NC1=O` [Compound 1909] ({CH2CO}-Y(Carboxymethyl)[Phe(4-COOH)]DWL[Bip]V[NMeA][dL][Dab][Cha]VSC[Dab]-NH2; thioether N-14): 0.01 µM; `Cc1cccc(C[C@@H]2NC(=O)[C@H](CC(=O)O)NC(=O)[C@H](Cc3ccc(OCC(=O)O)cc3)NC(=O)[C@H]([C@@H](C)O)NC(=O)CSC[C@@H](C(N)=O)NC(=O)[C@H](CC(=O)O)NC(=O)[C@H](C(C)C)NC(=O)[C@H](CC3CCCCC3)NC(=O)[C@H](CC(N)=O)NC(=O)[C@@H](CC(C)C)NC(=O)[C@H](C)N(C)C(=O)[C@H](Cc3ccc(OCC(=O)O)cc3)NC(=O)[C@H](Cc3ccc(-c4ccccc4)cc3)NC(=O)[C@H](Cc3ccc(OCC(=O)O)cc3)NC2=O)c1` [Compound 1676] ({CH2CO}-TY(Carboxymethyl)D[Phe(3-Me)]Y(Carboxymethyl)[Bip]Y(Carboxymethyl)[NMeA][dL]N[Cha]VDC-NH2; thioether N-14): 0.24 µM. On to `CC(C)C[C@@H]1NC(=O)[C@H](Cc2c[nH]c3ccccc23)NC(=O)[C@H](CC(=O)O)NC(=O)[C@H](Cc2ccc(O)cc2)NC(=O)[C@H](Cc2ccccc2)NC(=O)CSC[C@@H](C(=O)NCC(N)=O)NC(=O)[C@H](CO)NC(=O)[C@H](C(C)C)NC(=O)[C@H](CC(C)C)NC(=O)[C@H](CC(N)=O)NC(=O)[C@@H](CCC(N)=O)NC(=O)[C@H](C)N(C)C(=O)[C@H](C(C)C)NC(=O)[C@H](Cc2ccc(-c3ccccc3)cc2)NC1=O` [Compound 1784] ({CH2CO}-FYDWL[Bip]V[NMeA][dQ]NLVSCG-NH2; thioether N-14), for which the IC50 is 0.09 µM.

On to `CC(C)C[C@@H]1NC(=O)[C@H](CCN)NC(=O)[C@@H](CC(C)C)NC(=O)[C@H](C)N(C)C(=O)[C@H](CCCNC(=N)N)NC(=O)[C@H](Cc2ccc(-c3cccc(Cl)c3)cc2)NC(=O)[C@H](C(C)C)NC(=O)[C@H](Cc2c[nH]c3ccccc23)NC(=O)[C@H](CC(=O)O)NC(=O)[C@H](Cc2ccc(O)cc2)NC(=O)[C@H](CC(N)=O)NC(=O)CSC[C@@H](C(=O)N[C@@H](C)C(N)=O)NC(=O)[C@H]([C@@H](C)O)NC(=O)[C@H](C(C)C)NC1=O` [Compound 1222] ({CH2CO}-NYDWV[X33]R[NMeA][dL][Dab]LVTCA-NH2; thioether N-14), for which the IC50 was 0.12 µM.

As usually defined, the IC50 is the concentration that gives 50% inhibition.
